Assay results from publication PMC6222829, “Synthesis, Molecular Docking and Anticancer Activity of Diflunisal Derivatives as Cyclooxygenase Enzyme Inhibitors” (Molecules : A Journal of Synthetic Chemistry and Natural …, 2018).
Entries after “also recorded” stand apart in the source; their conditions may differ. Like-named read-outs stand apart in the source and are kept apart here.

What was measured:
[1] = tested on: PC-3 cell line; set-up: method as in PMID 20658169, PMID 26580554; conditions: literature value ref 42,43; cited from earlier work
[2] = tested on: HCT116 cell line; set-up: method as in PMID 20658169, PMID 26580554; conditions: literature value ref 42,43; cited from earlier work
[3] = tested on: T47D cell line; set-up: method as in PMID 20658169, PMID 26580554; conditions: literature value ref 42,43; cited from earlier work
[4] = tested on: PC-3 cell line; experiment: MTS cytotoxicity assay, PC-3; type: cell-based, human; set-up: key to IC50 PC-3: PCV: Promoting cell viability; NSC: No significant change; conditions: for IC50 PC-3 / IC50: MTS assay, 72 h incubation; for IC50: Homo sapiens, PC-3
Procedure: (§1) In this project, the colorectal cancer cell line HCT116 (ATCC® CCL-247™), […] prostate cancer cell line PC-3 (ATCC® CRL-1435™), breast cancer cell lines T47D (ATCC® HTB-133™), MCF7 (ATCC® HTB-22™) and finally, epithelial embryonic kidney cell line HEK293 (ATCC® CRL-1573™) were used. All media were completed with %10 fetal bovine serum (FBS) and %1 penicillin streptomycin amphotericin (PSA). All cells were cultured periodically at 37 °C, 5% (v/v) CO2 and 95% (v/v) air in T-75 flasks. Different media were used for the different cell lines based on ATCC standards: MCF7 and HEK293 cell lines were cultured in DMEM High Mmedium (ATCC, 30-2003); T47D and PC-3 cell lines were cultured in RPM 1640 medium (ATCC, 30-2001); HCT116 cell line was cultured in DMEM F12 medium (ATCC, 30-2006). RPM 1640 medium was further completed with 0.2 unit/mL bovine insulin for the T47D cell line. Cells were passaged when they reached %80 confluency in order to support proliferation.
(§2) The effects of the synthesized compounds on the cell viability were tested. Stock solutions for each compound were prepared by measuring 20 mg of each compound and dissolving it in 1 mL DMSO to a final concentration of […], followed by filtration through a 0.2-μm filter (Sartorius AG, Gottingen, Germany). Then stock solutions were diluted as 1/10, 1/100 and 1/1000 in the designated media and applied on the cell lines. In order to determine the effect of DMSO itself, the same dilutions were performed by using DMSO, only and applied on the cell lines. Cell densities used for each cell line in 96 well plate were as follows: for PC-3, HCT116 and HEK293 cell lines 5000 cells/well; for T47D cell lines 20,000 cells/well. Cell viability was measured by the MTS cytotoxicity assay (CellTiter96 AqueousOne Solution; Promega, Southampton, UK) according to the manufacturer’s instructions. 3-(4,5-Dimethylthiazol-2-yl)-5-(3-carboxymethoxyphenyl)-2-(4-sulfo-phenyl)-2H-tetrazolium (MTS) is a yellow tetrazolium salt which is catabolized to formazan by dehydrogenase enzyme in the mitochondria of the living cells. Formazan is a purple compound and the detection in this assay is based on the measurement of formazan compounds by an ELISA plate reader. After incubating the cells for 72 h, 10 µL MTS reagent and 100 µL designated medium was given to the cells followed by 2 h of incubation at 37 °C. Thereafter, the absorbance at 490 nm was measured by an ELISA plate reader. (BioTek Instruments, Inc., Winooski, VT, USA). The activity doses of the compounds were determined according to 50% cell death rate when compared to DMSO, only after 72 h of incubation. […] IC50 values are calculated by the GraphPad prism software.

[5] = tested on: T47D cell line; experiment: MTS cytotoxicity assay, T47D; type: cell-based, human; set-up: key to IC50 T47D: PCV: Promoting cell viability; NSC: No significant change; conditions: for IC50 T47D / IC50: MTS assay, 72 h incubation; for IC50: Homo sapiens, T47D
Procedure: as §1, §2

[6] = tested on: HEK293 cell line; experiment: MTS cytotoxicity assay, HEK293; type: cell-based, human; conditions: normal cell line; for IC50: Homo sapiens, HEK293, MTS assay, 72 h incubation
Procedure: as §1, §2

[7] = tested on: HEK293 cell line; experiment: Annexin V/PI apoptosis assay, HEK293; type: cell-based; conditions: FITC-Annexin V/PI flow cytometry
Procedure: (§3) Evaluation of the effect of the synthesized compounds on apoptosis was determined by the FITCH-AnnexinV/PI protocol. Damaged cell membrane of necrotic cell enables propidium iodide (PI) to bind DNA and induces a red fluorescence, although it is excluded by non-damaged cells, select live and apoptotic cells. FITCH-Annexin V has the ability to bind to phosphatidylserine which is a specific marker of apoptosis. […] The lower left panel of the quadrant of the cytograms indicates live cells due to exclusion of PI and non-bound Annexin V.
(§4) The upper left panel of the cytogram represents necrotic cells which are positive for PI. Each cytogram of each cell was analyzed and a histogram graph was drawn for further visual information.
Determination of IC50 values was followed by the investigation of effect of the synthesized compounds on apoptosis. Cells were seeded into six well plates at densities of 15,000 cells/well (PC-3, HCT116 and HEK293 cell lines) and 60,000 cells/well (T47D cell lines). After the treatment cells were harvested and washed with ice cold PBS. 1 × Annexin-binding buffer was prepared while the cells were being washed. Working solution of PI (100 µg/mL) was prepared as well by diluting 5 µL of the 1 mg/mL PI stock solution in 45 µL 1 × Annexin-binding buffer. After the precipitation of the cells, they were resuspended in 500 µL 1 × Annexin-binding buffer. Resuspended cells were separated into four groups (Annexin V, PI, Annexin V + PI and NC) each containing 100 µL of suspension. Five µL of the Annexin V conjugate was added to the proper groups. Samples were incubated for 15 min at room temperature. The incubation step was followed by adding 2 µL of the 100 µg/mL PI working solution to the proper groups then the fluorescence was observed by flow cytometry.

[8] = tested on: PC-3 cell line; experiment: Annexin V/PI apoptosis assay, PC-3; type: cell-based, human; conditions: FITC-Annexin V/PI flow cytometry
Procedure: as §3, §4
(§5) Determination of IC50 values was followed by the investigation of effect of the synthesized compounds on apoptosis. Cells were seeded into six well plates at densities of 15,000 cells/well (PC-3, HCT116 and HEK293 cell lines) and 60,000 cells/well (T47D cell lines). After the treatment cells were harvested and washed with ice cold PBS. 1 × Annexin-binding buffer was prepared while the cells were being washed. […] The incubation step was followed by adding 2 µL of the 100 µg/mL PI working solution to the proper groups then the fluorescence was observed by flow cytometry.

[9] = tested on: HCT116 cell line; experiment: MTS cytotoxicity assay, HCT116; type: cell-based, human; conditions: for IC50: Homo sapiens, HCT-116, MTS assay, 72 h incubation
Procedure: as §1, §2

[10] = tested on: MCF7 cell line; experiment: MTS cytotoxicity assay, MCF7; type: cell-based; conditions: Homo sapiens, 72 h incubation
Procedure: as §1, §2

[11] = tested on: T47D cell line; experiment: Annexin V/PI apoptosis assay, T47D; type: cell-based, human; conditions: FITC-Annexin V/PI flow cytometry
Procedure: as §3, §4, §5

[12] = tested on: HCT116 cell line; experiment: Annexin V/PI apoptosis assay, HCT116; type: cell-based, human; conditions: FITC-Annexin V/PI flow cytometry
Procedure: as §3, §4, §5

In the case of `N.N.[Cl][Pt][Cl]` [Cisplatin], the IC50 [1] is given as 39.9 µM, the IC50 [2] is given as 1.25 µM and the IC50 [3] is given as 0.836 µM.
In the case of `O=C(NNC(=S)Nc1cccc(F)c1)c1cc(-c2ccc(F)cc2F)ccc1O` [Compound 4], the “IC50 PC-3” value [4] is reported as “PCV”, the “IC50 T47D” value [5] is reported as “PCV” and the IC50 [6] is reported as 617 µM.
`O=C(NNC(=S)Nc1cccc(Cl)c1)c1cc(-c2ccc(F)cc2F)ccc1O` [Compound 5] gave an IC50 [6] of 44.4 µM.
With `O=C(NNC(=S)Nc1cccc(Br)c1)c1cc(-c2ccc(F)cc2F)ccc1O` [Compound 6, N-(3-Bromophenyl)-2-[(2′,4′-difluoro-4-hydroxybiphenyl-3-yl)carbonyl]hydrazine carbothioamide] the “anticancer activity against PC-3 (in words)” value [4] was “displayed anti-tumourigenic activity”, the IC50 [4] was 41.8 ± 3.4 µM and the IC50 [5] was 100 ± 2.3 µM. The IC50 [6] was 93 ± 3.43 µM, the “cytotoxic effect on HEK293 (in words)” value [6] was “did not show cytotoxic effects” and the “apoptosis / necrosis, HEK293” value [7] was “did not result in apoptosis”. The “apoptosis / necrosis, PC-3” value [8] was “increase of late apoptosis markers; also recorded: undergo apoptosis highly”.
`O=C(NNC(=S)Nc1ccc(Br)cc1)c1cc(-c2ccc(F)cc2F)ccc1O` [Compound 7, N-(4-Bromophenyl)-2-[(2′,4′-difluoro-4-hydroxybiphenyl-3-yl)carbonyl]hydrazine carbothioamide] showed an IC50 [4] of 11.7 ± 4.2 µM, an IC50 [5] of 16.7 ± 2.8 µM and an IC50 [6] of 3.17 ± 1.06 µM.
With `O=C(NC(=S)NNC(=O)c1cc(-c2ccc(F)cc2F)ccc1O)c1ccccc1` [Compound 8, N-({2-[(2′,4′-Difluoro-4-hydroxybiphenyl-3-yl)carbonyl]hydrazinyl}carbonothioyl)benzamide] the IC50 [4] was 2.85 ± 3.6 µM, the IC50 [9] was 3.68 ± 2.1 µM and the IC50 [5] was 8.07 ± 2 µM. For the same molecule, the IC50 [6] was 5.04 ± 1.5 µM.
For `COc1ccccc1NC(=S)NNC(=O)c1cc(-c2ccc(F)cc2F)ccc1O` [Compound 9, 2-[(2′,4′-Difluoro-4-hydroxybiphenyl-3-yl)carbonyl]-N-(2-methoxyphenyl)hydrazine carbothioamide], the IC50 [4] was 1.57 ± 1.4 µM, the IC50 [9] was 1.83 ± 0.92 µM and the IC50 [5] was 3.86 ± 0.7 µM. It also gave an IC50 [10] of 3.92 ± 0.27 µM and an IC50 [6] of 3.02 ± 1.9 µM.
For `CCc1ccc(NC(=S)NNC(=O)c2cc(-c3ccc(F)cc3F)ccc2O)cc1` [Compound 10, 2-[(2′,4′-Difluoro-4-hydroxybiphenyl-3-yl)carbonyl]-N-(4-ethylphenyl)hydrazine carbothioamide], the “anticancer activity against PC-3 (in words)” value [4] was “displayed anti-tumourigenic activity”, the IC50 [4] was 11.7 ± 2.6 µM and the “IC50 T47D” value [5] was “NSC”. For the same molecule, the IC50 [6] was 94 ± 3.74 µM, the “cytotoxic effect on HEK293 (in words)” value [6] was “did not show cytotoxic effects” and the “apoptosis / necrosis, HEK293” value [7] was “slight insignificant increase in necrosis; also recorded: did not result in apoptosis”. For the same molecule, the “apoptosis / necrosis, PC-3” value [8] was “increase of late apoptosis markers; also recorded: undergo apoptosis highly”.
With `CCCn1c(-c2cc(-c3ccc(F)cc3F)ccc2O)n[nH]c1=S` [Compound 11, 5-(2′,4′-Difluoro-4-hydroxybiphenyl-3-yl)-4-propyl-2,4-dihydro-3H-1,2,4-triazole-3-thione] the IC50 [4] was 174 ± 6.3 µM, the IC50 [5] was 10.1 ± 1.57 µM and the IC50 [10] was 22.2 ± 2.3 µM. The IC50 [6] was 11.5 ± 0.2 µM.
`Oc1ccc(-c2ccc(F)cc2F)cc1-c1n[nH]c(=S)n1-c1cccc(F)c1` [Compound 12, 5-(2′,4′-Difluoro-4-hydroxybiphenyl-3-yl)-4-(3-fluorophenyl)-2,4-dihydro-3H-1,2,4-triazole-3-thione] gave an IC50 [4] of 34 ± 2.1 µM, an IC50 [5] of 9.24 ± 1.01 µM and an IC50 [10] of 15 ± 1.3 µM. It also gave an IC50 [6] of 10.7 ± 0.96 µM.
Molecule `Oc1ccc(-c2ccc(F)cc2F)cc1-c1n[nH]c(=S)n1-c1cccc(Cl)c1` [Compound 13, 4-(3-Chlorophenyl)-5-(2′,4′-difluoro-4-hydroxybiphenyl-3-yl)-2,4-dihydro-3H-1,2,4-triazole-3-thione] has an IC50 [4] of 34.1 ± 3.7 µM, an IC50 [5] of 5.55 ± 2.7 µM and an IC50 [10] of 12.9 ± 2.1 µM. The IC50 [6] was 8.7 ± 1.79 µM.
For `Oc1ccc(-c2ccc(F)cc2F)cc1-c1n[nH]c(=S)n1-c1cccc(Br)c1` [Compound 14, 4-(3-Bromophenyl)-5-(2′,4′-difluoro-4-hydroxybiphenyl-3-yl)-2,4-dihydro-3H-1,2,4-triazole-3-thione], the “IC50 PC-3” value [4] was “PCV” and the IC50 [5] was 11.5 ± 1.8 µM.
For `Oc1ccc(-c2ccc(F)cc2F)cc1-c1n[nH]c(=S)n1-c1ccc(Br)cc1` [Compound 15, 4-(4-Bromophenyl)-5-(2′,4′-difluoro-4-hydroxybiphenyl-3-yl)-2,4-dihydro-3H-1,2,4-triazole-3-thione], the “anticancer activity against PC-3 (in words)” value [4] was “did not show any activity”, the IC50 [4] was 145 ± 2.8 µM and the “anticancer activity against HCT-116 (in words)” value [9] was “did not show any activity”. For the same molecule, the “anticancer activity against T47D (in words)” value [5] was “demonstrated anticancer activity”, the IC50 [5] was 43.4 ± 2.72 µM and the IC50 [6] was 145 ± 2.3 µM. The “cytotoxic effect on HEK293 (in words)” value [6] was “did not show cytotoxic effects”, the “apoptosis / necrosis, HEK293” value [7] was “did not result in apoptosis” and the “apoptosis / necrosis, T47D” value [11] was “vast late apoptosis; also recorded: largely through late apoptosis”.
In the case of `COc1ccccc1-n1c(-c2cc(-c3ccc(F)cc3F)ccc2O)n[nH]c1=S` [Compound 16, 5-(2′,4′-Difluoro-4-hydroxybiphenyl-3-yl)-4-(2-methoxyphenyl)-2,4-dihydro-3H-1,2,4-triazole-3-thione], the IC50 [4] is reported as 169 ± 3.9 µM, the “anticancer activity against HCT-116 (in words)” value [9] is reported as “displayed activity” and the IC50 [9] is reported as 6.2 ± 3.1 µM. For the same molecule, the “anticancer activity against T47D (in words)” value [5] was “demonstrated anticancer activity”, the IC50 [5] was 27.3 ± 2.28 µM and the IC50 [6] was 53 ± 2.39 µM. The “cytotoxic effect on HEK293 (in words)” value [6] was “did not show cytotoxic effects”, the “apoptosis / necrosis, HEK293” value [7] was “did not result in apoptosis” and the “apoptosis / necrosis, HCT116” value [12] was “extensive apoptotic effect”. For the same molecule, the “apoptosis / necrosis, T47D” value [11] was “resulted in necrosis”.
